According to article PMC9917632, “Structural and Biochemical Analyses of the Butanol Dehydrogenase from Fusobacterium nucleatum” (International Journal of Molecular Sciences, 2023):

Tests used:
[1] = biological target: T1, FnYqdH (Fusobacterium nucleatum YqdH, butanol dehydrogenase) (Fusobacterium nucleatum, UniProt Q8R612); test: X-ray crystal structure, […] Å, soaked crystal; settings: soaked 1 min with 10 mM NADH and 2 mM Co2+; nucleotide-binding domain; open conformation
T1 construct: gene FN1415; recombinant, yqdH cloned NcoI/XhoI in pPRO-EX-HTA, expressed in Escherichia coli; dimer; 384 residues modelled (CD to residue 385)
T1 sequence (Q8R612 1-385): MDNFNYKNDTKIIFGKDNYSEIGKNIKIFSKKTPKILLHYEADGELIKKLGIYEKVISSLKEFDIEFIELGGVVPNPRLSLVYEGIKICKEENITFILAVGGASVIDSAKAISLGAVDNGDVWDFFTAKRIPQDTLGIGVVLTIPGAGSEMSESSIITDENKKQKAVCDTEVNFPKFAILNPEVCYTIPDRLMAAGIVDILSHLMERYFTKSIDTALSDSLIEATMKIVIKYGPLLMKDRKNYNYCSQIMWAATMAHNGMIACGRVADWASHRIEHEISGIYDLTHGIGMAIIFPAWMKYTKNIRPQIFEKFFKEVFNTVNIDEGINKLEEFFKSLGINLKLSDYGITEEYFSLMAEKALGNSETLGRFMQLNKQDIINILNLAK

[2] = biological target: T1, FnYqdH (Fusobacterium nucleatum YqdH, butanol dehydrogenase); test: NADH consumption at […] nm, double reciprocal plot; type: biochemical; settings: 0.1-0.5 mM NADH; co-substrate butanal; Tris-HCl pH 6.0, CoSO4, 35 °C (standard assay)
[3] = biological target: T2, TmBDH (Thermotoga maritima, UniProt Q9WZS7); test: NADH consumption, spectrophotometric; type: biochemical; settings: metal-free enzyme reconstituted with 2 mM Zn2+, Co2+, Ni2+ or Fe3+; co-substrate butanal
T2 construct: gene TM_0820; purified protein, EDTA-treated (metal-free) then metal-reconstituted
T2 sequence (Q9WZS7 1-395): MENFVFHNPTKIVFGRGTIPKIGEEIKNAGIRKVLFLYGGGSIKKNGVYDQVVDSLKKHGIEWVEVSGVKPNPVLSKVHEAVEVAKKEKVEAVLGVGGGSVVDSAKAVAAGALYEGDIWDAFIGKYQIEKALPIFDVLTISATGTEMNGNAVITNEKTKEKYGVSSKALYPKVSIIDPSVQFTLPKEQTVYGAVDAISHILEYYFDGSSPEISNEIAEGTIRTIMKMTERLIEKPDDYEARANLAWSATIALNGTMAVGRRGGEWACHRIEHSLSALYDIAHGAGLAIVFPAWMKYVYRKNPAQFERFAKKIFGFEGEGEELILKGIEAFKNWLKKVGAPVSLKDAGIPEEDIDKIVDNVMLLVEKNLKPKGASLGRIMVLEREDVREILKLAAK

[4] = biological target: Fusobacterium nucleatum YqdH (butanol dehydrogenase) (Fusobacterium nucleatum); test: SEC; purified FnYqdH (500 uL of 1 mg/mL) on Superdex 200 10/300 GL; 20 mM Tris-HCl pH 8.0, 150 mM NaCl, 2 mM BME; 0.5 mL/min
[5] = biological target: T1, FnYqdH (Fusobacterium nucleatum YqdH, butanol dehydrogenase); test: NADPH consumption at […] nm, double reciprocal plot; type: biochemical; settings: 0.1-1 mM NADPH; co-substrate butanal; Tris-HCl pH 6.0, CoSO4, 35 °C (standard assay)

NC(=O)C1=CN([C@@H]2O[C@H](COP(=O)(O)OP(=O)(O)OC[C@H]3O[C@@H](n4cnc5c(N)ncnc54)[C@H](O)[C@@H]3O)[C@@H](O)[C@H]2O)C=CC1 [NADH]
X-ray crystal structure, 2.72 Å, soaked crystal [1]: an electron-density map corresponding to NADH and metal ions was clearly observed | apparent Km [2]: the apparent Km and Vmax values were measured with a purified protein | NADH consumption, spectrophotometric [3]: monitoring NADH consumption for five different metal ions

Fusobacterium nucleatum YqdH (butanol dehydrogenase) (enzyme)
stoichiometry N [4]: 2

NC(=O)C1=CN([C@@H]2O[C@H](COP(=O)(O)OP(=O)(O)OC[C@H]3O[C@@H](n4cnc5c(N)ncnc54)[C@H](OP(=O)(O)O)[C@@H]3O)[C@@H](O)[C@H]2O)C=CC1 [NADPH]
apparent Km [5]: NADH is preferred over NADPH in terms of FnYqdH activity (Figure S2)
